Source: paper PMC7318222, “A Family of Water‐Immiscible, Dipolar Aprotic, Diamide Solvents from Succinic Acid” (Chemsuschem, 2020)

What was measured:
Set-up in all cases: key: –: no effect observed up to the highest test concentration
TRβ [1] = biological target: T1, TRβ (Homo sapiens, UniProt P10828); assay: TRβ CALUX reporter gene assay; format: cell-based; conditions: PC10, 24 h exposure
T1 construct: expression construct for the full-length human receptor under investigation; expressed in transfected cells; host or cells: human U2-OS cells (ATCC HTB-96), stably transfected
T1 sequence (P10828 1-461): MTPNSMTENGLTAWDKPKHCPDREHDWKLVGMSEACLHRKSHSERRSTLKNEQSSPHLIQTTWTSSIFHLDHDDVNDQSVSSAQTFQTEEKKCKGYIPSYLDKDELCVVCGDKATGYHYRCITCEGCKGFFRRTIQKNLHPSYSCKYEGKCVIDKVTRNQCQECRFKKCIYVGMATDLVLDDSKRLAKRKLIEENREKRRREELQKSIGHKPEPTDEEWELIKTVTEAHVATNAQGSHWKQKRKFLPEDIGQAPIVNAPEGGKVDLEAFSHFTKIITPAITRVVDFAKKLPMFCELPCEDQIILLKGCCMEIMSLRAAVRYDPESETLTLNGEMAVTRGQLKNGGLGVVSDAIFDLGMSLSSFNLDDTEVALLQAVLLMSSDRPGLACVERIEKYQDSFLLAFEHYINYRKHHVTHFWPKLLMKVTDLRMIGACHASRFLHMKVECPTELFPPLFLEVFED
From the text: (§1) 2-methylimidazole 99.0%, zinc(II) nitrate hexahydrate ≥99.0%, para-cymene 99.0%, 1,4-dioxane 99.8% (anhydrous), 4-nitroaniline ≥99.0%, 1-octanol ≥99.0%, diglyme ≥99.0%, DMSO-d6 (99.8% D) and chloroform-d (99.8% D) were purchased from Sigma-Aldrich. Toluene ≥99.0%, hexane ≥99.5%, DCM ≥99.5%, chloroform ≥99.5%, DMSO ≥99.0% were purchased from VWR. N,N-diethyl-4-nitroaniline ≥98.0% was purchased from Alfa Aeser. Cyrene was supplied by Circa group. N-butylpyrrolidinone was supplied by Eastman chemicals. N,N-dimethylformamide 99.9% and N,N-dimethylacetamide 99.9% were purchased from Fischer. The flakes of Ultrason® E3020 P Polyarylethersulfone of 55,000 Da were obtained from INGE.BASF, Germany. The CALUX cell lines have been described previously.[1] They are based on human U2-OS cells (ATCC, HTB-96) stably transfected with an expression construct for the full-length human receptor under investigation, and a reporter construct consisting of multimerized responsive elements for the cognate receptor coupled to a minimal promoter element (TATA) and a luciferase gene. Cells were maintained as described previously,[2] using cell culture media and supplements from Fisher Scientific as described in the experimental procedures section. […]
(§2) In vitro reporter gene assays
(§3) The automated CALUX assays were carried out similarly as described earlier,[12] with some adaptations. In brief, the assay was performed in CO2 independent medium (Fisher Scientific, […]
(§4) supplement (Fisher Scientific, 11574466), 10 U/mL penicillin and 10 µg/mL streptomycin. A cell suspension in assay medium was made of 1 × 10^5cells/mL, and white 384-wells plates were seeded with 30 µl cell suspension/well. After 24 h, exposure medium was prepared. A dilution series in 0.5log unit increments of each test compound (in DMSO) was added to a 96-wells plate containing assay medium (2% v/v). Of this exposure mixture, 30 µl was added to the assay plates containing the CALUX cells, resulting in a final DMSO concentration of 1%. Additionally, DMSO blanks and a full dose response curve of the relevant reference compound were included on each plate. All samples were tested in triplicate. The preparation of the compound dilution series as well as the exposure of the cells were performed on a Hamilton StarLET liquid handling robot coupled to a Cytomat incubator.
(§5) Directly after exposure, plates were sealed with non-breathing plate seals (Plate sealer, easy seal transparent; Greiner-Bio-One, 676001). After 24 h the exposure medium was removed using an EL406 washer-dispenser (BioTek) and 10 µl/well triton lysisbuffer was added by the EL406.
(§6) Subsequently, the luciferase signal was measured in a luminometer (InfinitePro coupled to a Connect Stacker, both TECAN). In order to be able to detect receptor antagonism, several assays were also performed in antagonistic mode. […]
(§7) The luminometer data was analysed as follows; the average of the triplicate wells was determined, and the average blank (DMSO) value was subtracted. […] For antagonist- and cytotoxicity experiments, PC20 values were determined instead, which was defined as the concentration where the test compound causes a 20% decrease in the basal signal, which was […]
(§8) curve, the signal induction above background (DMSO) was determined, and the concentration where the compound elicited a 1.5-fold increase above background was used as LEC.

p21 = p21 CALUX assay (DNA damage response); format: cell-based, human; conditions: cell signaling pathway assay, 24 h exposure
From the text: (§9) Six of the CALUX assays (TCF through p53) detect activation of several cellular signaling pathways, which are indicative of general stress and acute toxicity, but also a range of more specific types of toxicity, including reproductive toxicity. […]
(§10) DCM ≥99.5%, chloroform ≥99.5%, DMSO ≥99.0% were purchased from VWR. […]
(§11) Polyarylethersulfone of 55,000 Da were obtained from INGE.BASF, Germany. The CALUX cell lines have been described previously.[1] They are based on human U2-OS cells (ATCC, HTB-96) stably transfected with an expression construct for the full-length human receptor under investigation, and a reporter construct consisting of multimerized responsive elements for the cognate receptor coupled to a minimal promoter element (TATA) and a luciferase gene. Cells were maintained as described previously,[2] using cell culture media and supplements from Fisher Scientific as described in the experimental procedures section. […]
as §2, §3, §4, §5
(§12) Subsequently, the luciferase signal was measured in a luminometer (InfinitePro coupled to a Connect Stacker, both TECAN). In order to be able to detect receptor antagonism, several assays were also performed in antagonistic mode. The assay procedure was as described above, with the only exception that the EC50 concentration of the reference agonist was present during the exposure.
(§13) The luminometer data was analysed as follows; the average of the triplicate wells was determined, and the average blank (DMSO) value was subtracted. For receptor-based assays the maximum response elicited by the reference compound was set to 100% (full receptor- or pathway activation), and the other values were scaled accordingly. GraphPad Prism was used to fit a sigmoidal curve through the data (four parameters, variable slope). […] For antagonist- and cytotoxicity experiments, PC20 values were determined instead, which was defined as the concentration where the test compound causes a 20% decrease in the basal signal, which was […]
as §8

ESRE = ESRE CALUX assay (unfolded protein response); format: cell-based, human; conditions: cell signaling pathway assay, 24 h exposure
From the text: as §9, §1, §2, §3, §4, §5, §12
The luminometer data was analysed as follows; the average of the triplicate wells was determined, and the average blank (DMSO) value was subtracted. […] For antagonist- and cytotoxicity experiments, PC20 values were determined instead, which was defined […]

TRβ [2] = biological target: T1, TRβ; assay: TRβ-anti CALUX reporter gene assay (antagonistic mode); format: cell-based; conditions: PC20, 24 h exposure
From the text: as §1, §2, §3, §4, §5, §6, §7, §8

Nrf2 = Nrf2 CALUX assay (oxidative stress); format: cell-based, human; conditions: cell signaling pathway assay, 24 h exposure
From the text: as §9, §10, §11, §2, §3, §4, §5, §12, §13, §8

| Structure (SMILES) | LEC TRβ (TRβ [1]) | LEC p21 (p21) | LEC ESRE (ESRE) | LEC TRβ‐anti (TRβ [2]) | LEC Nrf2 (Nrf2) |
| --- | --- | --- | --- | --- | --- |
| CCCCN(CCCC)C(=O)CCC(=O)N(CCCC)CCCC [TBSA, N,N,N′,N′‐tetrabutylsuccindiamide] | – | – | – | – | – |
| CCCCN(CC)C(=O)CCC(=O)N(CC)CCCC [EBSA, N,N′‐diethyl‐N,N′‐dibutylsuccindiamide] | – | – | – | – | – |
| CN1CCCC1=O [NMP, N‐methyl‐2‐pyrrolidone, reference compound] | – | −2.0 Log M | – | – | – |
| CCCCN(C)C(=O)CCC(=O)N(C)CCCC [MBSA, N,N′‐dimethyl‐N,N′‐dibutylsuccindiamide] | – | – | −2.4 Log M | – | −2.9 Log M |
| CCCCN1CCCC1=O [NBP, N‐Butylpyrrolidinone, reference compound] | – | – | – | – | – |
